In US9346798B2, “Dihydrobenzoxazine and tetrahydroquinoxaline sodium channel inhibitors” (AMGEN INC., priority 2012, dated 2016):

These compounds were tested against Nav 1.5 (Homo sapiens (Human), UniProt Q14524) (assay: Nav 1.5 in vitro assay, IonWorks Quattro (IWQ) population patch-clamp). Conditions: HEK 293 cells stably transfected with Nav 1.5; 26th pulse to -20 mV.
Assay type: cell-based
Method: Nav 1.7 and Nav 1.5 In Vitro Assays
HEK 293 cells stably transfected with either Nav 1.7 or with Nav 1.5 were recorded in population patch-clamp mode with the IonWorks® Quattro automated electrophysiology system in accordance with the manufacturer's specifications (Molecular Devices, LLC, Sunnyvale, Calif.). Sodium channel currents were measured in response to a train of depolarizations that induced successively greater inactivation.
Cells were held at −110 mV for three seconds (Nav 1.7) or half a second (Nav 1.5) from a holding voltage of −15 mV, then put through a series of 26 pulses of 150 msec duration to −20 mV at a frequency of 5 Hz. Cells were then left unclamped for a period of 3 to 8 minutes while a single concentration of test compound was added. Cells were then reclamped and put through the same voltage protocol. Current at the end of the 26th pulse to −20 mV was subtracted from the peak current evoked by the 26th pulse to −20 mV to correct for leak current. Percent block was calculated for each concentration in duplicate, and IC50 curves were fitted to percent block as a function of concentration.

Sequence of Nav 1.5 (Q14524 whole entry): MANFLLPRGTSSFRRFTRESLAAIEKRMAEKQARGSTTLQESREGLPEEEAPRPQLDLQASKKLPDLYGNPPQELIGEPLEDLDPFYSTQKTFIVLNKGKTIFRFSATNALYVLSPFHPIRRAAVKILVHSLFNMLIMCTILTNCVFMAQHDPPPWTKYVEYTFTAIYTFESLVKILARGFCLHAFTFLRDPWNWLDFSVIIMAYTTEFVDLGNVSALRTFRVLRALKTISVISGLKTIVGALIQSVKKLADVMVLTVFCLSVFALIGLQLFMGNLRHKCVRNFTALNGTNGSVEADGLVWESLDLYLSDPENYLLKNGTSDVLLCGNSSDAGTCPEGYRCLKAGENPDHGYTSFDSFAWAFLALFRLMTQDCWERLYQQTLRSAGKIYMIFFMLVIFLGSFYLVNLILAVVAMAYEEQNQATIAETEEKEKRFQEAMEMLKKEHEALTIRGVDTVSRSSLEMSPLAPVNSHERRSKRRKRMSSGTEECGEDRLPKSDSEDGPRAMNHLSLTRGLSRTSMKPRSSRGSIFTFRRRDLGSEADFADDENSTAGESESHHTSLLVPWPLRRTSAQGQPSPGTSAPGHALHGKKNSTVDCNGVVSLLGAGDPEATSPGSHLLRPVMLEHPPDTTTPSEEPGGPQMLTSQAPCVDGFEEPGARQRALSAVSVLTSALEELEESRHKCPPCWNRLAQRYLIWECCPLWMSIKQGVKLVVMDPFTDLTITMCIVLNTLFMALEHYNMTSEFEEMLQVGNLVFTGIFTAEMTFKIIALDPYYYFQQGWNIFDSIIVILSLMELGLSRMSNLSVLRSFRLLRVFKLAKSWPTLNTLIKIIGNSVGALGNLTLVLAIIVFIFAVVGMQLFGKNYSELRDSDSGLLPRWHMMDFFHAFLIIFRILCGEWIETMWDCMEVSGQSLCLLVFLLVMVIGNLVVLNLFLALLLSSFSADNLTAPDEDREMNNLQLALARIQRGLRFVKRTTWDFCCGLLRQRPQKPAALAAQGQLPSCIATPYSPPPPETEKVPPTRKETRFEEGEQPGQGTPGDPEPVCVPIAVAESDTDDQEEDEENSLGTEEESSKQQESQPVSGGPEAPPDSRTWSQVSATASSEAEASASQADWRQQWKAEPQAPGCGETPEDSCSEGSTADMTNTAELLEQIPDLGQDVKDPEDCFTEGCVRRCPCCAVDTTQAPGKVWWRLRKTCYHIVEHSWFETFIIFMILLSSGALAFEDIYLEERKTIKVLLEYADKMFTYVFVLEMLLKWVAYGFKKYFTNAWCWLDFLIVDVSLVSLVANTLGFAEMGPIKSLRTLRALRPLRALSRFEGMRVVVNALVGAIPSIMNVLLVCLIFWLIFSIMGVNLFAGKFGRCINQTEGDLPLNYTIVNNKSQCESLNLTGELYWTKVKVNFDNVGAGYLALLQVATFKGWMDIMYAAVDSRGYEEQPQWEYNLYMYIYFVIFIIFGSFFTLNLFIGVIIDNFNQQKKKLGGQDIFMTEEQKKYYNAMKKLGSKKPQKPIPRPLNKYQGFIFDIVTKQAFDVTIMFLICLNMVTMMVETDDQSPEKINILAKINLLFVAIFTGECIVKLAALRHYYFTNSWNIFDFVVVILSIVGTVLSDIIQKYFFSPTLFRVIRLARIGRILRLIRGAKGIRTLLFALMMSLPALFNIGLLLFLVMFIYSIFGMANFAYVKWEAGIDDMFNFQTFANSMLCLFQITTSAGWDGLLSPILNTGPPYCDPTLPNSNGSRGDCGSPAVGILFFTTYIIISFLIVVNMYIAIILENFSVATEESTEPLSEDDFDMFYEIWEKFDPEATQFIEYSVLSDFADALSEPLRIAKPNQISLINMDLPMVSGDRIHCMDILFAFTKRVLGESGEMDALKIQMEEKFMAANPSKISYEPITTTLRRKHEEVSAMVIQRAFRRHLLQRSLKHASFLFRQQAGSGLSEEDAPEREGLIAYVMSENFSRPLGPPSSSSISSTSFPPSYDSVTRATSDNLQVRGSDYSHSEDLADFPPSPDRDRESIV

Structure (SMILES)	IC50 [µM]
CC(C)(C)OC(=O)N1CC=C(c2cc(C(F)(F)F)ccc2N2CCOc3cc(S(=O)(=O)Nc4ncns4)ccc32)CC1 [Example 6, Tert-Butyl 4-(2-(7-(N-(1,2,4-Thiadiazol-5-Yl)Sulfamoyl)-2H-Benzo[B][1,4]Oxazin-4(3H)-Yl)-5-(Trifluoromethyl)Phenyl)-5,6-Dihydropyridine-1(2H)-Carboxylate]	2.29
O=S(=O)(Nc1nccs1)c1ccc2c(c1)OCCN2c1ccc(C(F)(F)F)cc1C1=CCNCC1 [Example 38, 4-(2-(1,2,3,6-Tetrahydropyridin-4-Yl)-4-(Trifluoromethyl)Phenyl)-N-(Thiazol-2-Yl)-3,4-Dihydro-2H-Benzo[B][1,4]Oxazine-7-Sulfonamide 2,2,2-Trifluoroacetate]	0.254
CN1CC=C(c2cc(C(F)(F)F)ccc2N2CCOc3cc(S(=O)(=O)Nc4ccncn4)ccc32)CC1 [Example 51, 4-(2-(1-Methyl-1,2,3,6-Tetrahydropyridin-4-Yl)-4-(Trifluoromethyl)Phenyl)-N-(Pyrimidin-4-Yl)-3,4-Dihydro-2H-Benzo[B][1,4]Oxazine-7-Sulfonamide]	> 10
O=S(=O)(Nc1nccs1)c1ccc2c(c1)OCCN2c1cccc2scnc12 [Example 72, 4-(Benzo[D]Thiazol-4-Yl)-N-(Thiazol-2-Yl)-3,4-Dihydro-2H-Benzo[B][1,4]Oxazine-7-Sulfonamide 2,2,2-Trifluoroacetate]	> 10
COc1cccc(N2CCOc3cc(S(=O)(=O)Nc4nccs4)ccc32)c1 [Example 77, 4-(3-Methoxyphenyl)-N-(Thiazol-2-Yl)-3,4-Dihydro-2H-Benzo[B][1,4]Oxazine-7-Sulfonamide 2,2,2-Trifluoroacetate]	> 10
Cc1ccc(N2CCOc3cc(S(=O)(=O)Nc4nccs4)ccc32)cc1F [Example 82, 4-(3-Fluoro-4-Methylphenyl)-N-(Thiazol-2-Yl)-3,4-Dihydro-2H-Benzo[B][1,4]Oxazine-7-Sulfonamide 2,2,2-Trifluoroacetate]	> 10

Each compound was assayed against Nav 1.7 (Homo sapiens (Human), UniProt Q15858) (assay: Nav 1.7 in vitro PX assay, PatchXpress whole cell voltage clamp). Conditions: HEK293; values marked *; 4.9 μM; HEK 293 cells stably transfected with human Nav1.7; read-out: Nav 1.7 PX percent inhibition at 4.9 μM.
Sequence of Nav 1.7 (Q15858 whole entry): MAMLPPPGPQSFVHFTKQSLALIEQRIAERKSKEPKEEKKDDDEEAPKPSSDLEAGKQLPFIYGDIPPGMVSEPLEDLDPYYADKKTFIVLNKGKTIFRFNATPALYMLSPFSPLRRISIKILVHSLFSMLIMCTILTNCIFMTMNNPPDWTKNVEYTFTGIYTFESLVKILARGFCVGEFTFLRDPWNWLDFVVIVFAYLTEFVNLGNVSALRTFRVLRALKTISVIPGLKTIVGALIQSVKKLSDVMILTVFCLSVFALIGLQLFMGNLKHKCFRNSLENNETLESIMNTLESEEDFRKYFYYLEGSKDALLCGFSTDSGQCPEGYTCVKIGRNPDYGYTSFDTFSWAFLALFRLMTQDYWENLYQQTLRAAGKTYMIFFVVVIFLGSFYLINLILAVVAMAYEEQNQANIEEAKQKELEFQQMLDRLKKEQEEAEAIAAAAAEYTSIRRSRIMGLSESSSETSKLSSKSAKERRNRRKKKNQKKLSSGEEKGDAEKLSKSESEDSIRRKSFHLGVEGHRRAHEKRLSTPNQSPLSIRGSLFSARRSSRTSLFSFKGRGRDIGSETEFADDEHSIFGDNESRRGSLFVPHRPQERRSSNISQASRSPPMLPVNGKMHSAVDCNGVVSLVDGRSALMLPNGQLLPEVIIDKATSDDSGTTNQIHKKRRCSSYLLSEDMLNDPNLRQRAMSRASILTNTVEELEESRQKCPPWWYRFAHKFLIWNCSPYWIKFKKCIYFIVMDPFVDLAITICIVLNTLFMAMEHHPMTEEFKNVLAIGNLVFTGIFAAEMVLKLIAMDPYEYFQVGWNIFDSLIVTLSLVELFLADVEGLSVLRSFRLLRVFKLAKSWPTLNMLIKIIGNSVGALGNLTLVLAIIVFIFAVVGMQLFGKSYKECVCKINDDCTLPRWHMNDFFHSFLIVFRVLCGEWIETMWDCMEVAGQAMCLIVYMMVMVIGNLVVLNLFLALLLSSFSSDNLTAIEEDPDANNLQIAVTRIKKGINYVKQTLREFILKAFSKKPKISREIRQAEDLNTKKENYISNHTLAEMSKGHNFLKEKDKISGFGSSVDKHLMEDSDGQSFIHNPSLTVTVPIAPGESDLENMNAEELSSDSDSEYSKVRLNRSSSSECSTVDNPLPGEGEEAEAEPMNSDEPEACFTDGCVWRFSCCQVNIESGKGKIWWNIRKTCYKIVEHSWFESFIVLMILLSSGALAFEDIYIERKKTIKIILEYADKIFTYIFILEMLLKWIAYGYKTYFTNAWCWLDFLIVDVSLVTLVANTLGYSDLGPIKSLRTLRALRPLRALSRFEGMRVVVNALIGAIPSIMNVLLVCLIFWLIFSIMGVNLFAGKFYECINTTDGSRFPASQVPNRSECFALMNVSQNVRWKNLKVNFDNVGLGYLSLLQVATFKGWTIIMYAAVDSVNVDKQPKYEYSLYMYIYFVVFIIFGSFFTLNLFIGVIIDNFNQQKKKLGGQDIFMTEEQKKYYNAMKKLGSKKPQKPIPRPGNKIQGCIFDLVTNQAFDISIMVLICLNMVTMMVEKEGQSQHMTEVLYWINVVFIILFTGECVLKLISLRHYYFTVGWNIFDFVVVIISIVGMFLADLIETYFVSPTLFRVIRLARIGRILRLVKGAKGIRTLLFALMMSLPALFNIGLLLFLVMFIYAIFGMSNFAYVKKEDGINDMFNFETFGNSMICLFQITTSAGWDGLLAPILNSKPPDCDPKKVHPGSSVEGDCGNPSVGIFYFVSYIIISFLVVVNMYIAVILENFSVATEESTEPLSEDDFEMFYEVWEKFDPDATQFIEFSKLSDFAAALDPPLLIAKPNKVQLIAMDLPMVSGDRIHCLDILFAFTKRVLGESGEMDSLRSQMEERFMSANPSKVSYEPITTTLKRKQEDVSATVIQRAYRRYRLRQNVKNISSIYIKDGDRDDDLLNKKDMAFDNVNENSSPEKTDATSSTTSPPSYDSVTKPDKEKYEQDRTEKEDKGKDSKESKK
Assay type: cell-based
Method: Nav 1.7 In Vitro PX Assay
HEK 293 cells stably transfected with human Nav1.7 were recorded in whole cell voltage clamp mode with the PatchXpress automated electrophysiology system (Molecular Devices, LLC, Sunnyvale, Calif.). Compound effects were measured on a partially inactivated state of the sodium channel. Cells were clamped to a holding potential yielding 20 to 50% inactivation. To elicit sodium current, channels were activated by pulsing to −10 mV for 20 msec. This voltage protocol was repeated at a rate of 0.1 Hz throughout the experiment. A single concentration of test compound was applied to cells for a duration of 3 minutes. Peak sodium current was measured at the end of the compound addition period to determine percent inhibition. Three to five cells were tested per concentration, and IC50 curves were fitted to percent inhibition as a function of concentration.

Structure (SMILES)	inhibition at 4.9 µM [%]
COCC1CN(c2ccc(Cl)cc2C#N)c2ccc(S(=O)(=O)Nc3nccs3)cc2O1 (centres unmarked) [Example 251, 4-(4-chloro-2-cyanophenyl)-2-(methoxymethyl)-N-(thiazol-2-yl)-3,4-dihydro-2H-benzo[b][1,4]oxazine-7-sulfonamide]	27.8
CC(C)(O)COc1ccccc1N1CCOc2cc(S(=O)(=O)Nc3nccs3)ccc21 [Example 253, 4-(2-(2-hydroxy-2-methylpropoxy)phenyl)-N-(thiazol-2-yl)-3,4-dihydro-2H-benzo[b][1,4]oxazine-7-sulfonamide]	27

Same assay, conditions: HEK 293 cells stably transfected with human Nav1.7; partially inactivated state (20 to 50% inactivation)

Structure (SMILES)	IC50 [nM]
O=C1COc2cc(S(=O)(=O)Nc3nccs3)ccc2N1c1ccc(C(F)(F)F)cc1Cl [Example 241, 4-(2-Chloro-4-(Trifluoromethyl)Phenyl)-3-Oxo-N-(Thiazol-2-Yl)-3,4-Dihydro-2H-Benzo[B][1,4]Oxazine-7-Sulfonamide]	483
CC(O)c1ccccc1N1C(=O)COc2cc(S(=O)(=O)Nc3nccs3)ccc21 (centres unmarked) [Example 242, 4-(2-(1-Hydroxyethyl)Phenyl)-3-Oxo-N-(Thiazol-2-Yl)-3,4-Dihydro-2H-Benzo[B][1,4]Oxazine-7-Sulfonamide]	5820
N#Cc1cc(Cl)ccc1N1CCOc2cc(S(=O)(=O)Nc3ccncn3)ccc21 [Example 243, 4-(4-Chloro-2-Cyanophenyl)-N-(Pyrimidin-4-Yl)-3,4-Dihydro-2H-Benzo[B][1,4]Oxazine-7-Sulfonamide]	1880
NC(=O)c1ccccc1N1CCOc2cc(S(=O)(=O)Nc3nccs3)ccc21 [Example 244, 2-(7-(N-(Thiazol-2-Yl)Sulfamoyl)-2H-Benzo[B][1,4]Oxazin-4(3H)-Yl)Benzamide]	5010
COc1cc(F)ccc1N1C(=O)COc2cc(S(=O)(=O)Nc3nccs3)ccc21 [Example 245, 4-(4-Fluoro-2-Methoxyphenyl)-3-Oxo-N-(Thiazol-2-Yl)-3,4-Dihydro-2H-Benzo[B][1,4]Oxazine-7-Sulfonamide]	615
COc1ccc(F)cc1N1C(=O)COc2cc(S(=O)(=O)Nc3nccs3)ccc21 [Example 246, 4-(5-Fluoro-2-Methoxyphenyl)-3-Oxo-N-(Thiazol-2-Yl)-3,4-Dihydro-2H-Benzo[B][1,4]Oxazine-7-Sulfonamide]	540
Cc1cc(C(F)(F)F)ccc1N1C(=O)COc2cc(S(=O)(=O)Nc3nccs3)ccc21 [Example 247, 4-(2-Methyl-4-(Trifluoromethyl)Phenyl)-3-Oxo-N-(Thiazol-2-Yl)-3,4-Dihydro-2H-Benzo[B][1,4]Oxazine-7-Sulfonamide]	403
COc1cc(C(F)(F)F)ccc1N1C(=O)COc2cc(S(=O)(=O)Nc3ncns3)ccc21 [Example 248, 4-(2-Methoxy-4-(Trifluoromethyl)Phenyl)-3-Oxo-N-(1,2,4-Thiadiazol-5-Yl)-3,4-Dihydro-2H-Benzo[B][1,4]Oxazine-7-Sulfonamide]	175
O=S(=O)(Nc1nccs1)c1ccc2c(c1)OCCN2c1ccccc1C(O)CO (centres unmarked) [Example 252, 4-(2-(1,2-dihydroxyethyl)phenyl)-N-(thiazol-2-yl)-3,4-dihydro-2H-benzo[b][1,4]oxazine-7-sulfonamide]	3670
C=C(C)c1ccccc1N1CCOc2cc(S(=O)(=O)Nc3nccs3)ccc21 [Example 254, 4-(2-(prop-1-en-2-yl)phenyl)-N-(thiazol-2-yl)-3,4-dihydro-2H-benzo[b][1,4]oxazine-7-sulfonamide]	2420
O=S(=O)(Nc1nccs1)c1ccc2c(c1)OCCN2c1ccccc1-c1ccc(O)nc1 [Example 255, 4-(2-(6-hydroxypyridin-3-yl)phenyl)-N-(thiazol-2-yl)-3,4-dihydro-2H-benzo[b][1,4]oxazine-7-sulfonamide 2,2,2-trifluoroacetate]	975
NC(=O)COc1ccccc1N1CCOc2cc(S(=O)(=O)Nc3nccs3)ccc21 [Example 256, 2-(2-(7-(N-(thiazol-2-yl)sulfamoyl)-2H-benzo[b][1,4]oxazin-4(3H)-yl)phenoxy)acetamide]	2220
N#CCOc1ccccc1N1CCOc2cc(S(=O)(=O)Nc3nccs3)ccc21 [Example 257, 4-(2-(cyanomethoxy)phenyl)-N-(thiazol-2-yl)-3,4-dihydro-2H-benzo[b][1,4]oxazine-7-sulfonamide]	408
CC(C)(O)c1ccccc1N1CCOc2cc(S(=O)(=O)Nc3nccs3)ccc21 [Example 258, 4-(2-(2-hydroxypropan-2-yl)phenyl)-N-(thiazol-2-yl)-3,4-dihydro-2H-benzo[b][1,4]oxazine-7-sulfonamide]	1310
CCc1ccccc1N1CCOc2cc(S(=O)(=O)Nc3nccs3)ccc21 [Example 259, 4-(2-ethylphenyl)-N-(thiazol-2-yl)-3,4-dihydro-2H-benzo[b][1,4]oxazine-7-sulfonamide]	1600
O=S(=O)(Nc1nccs1)c1ccc2c(c1)OCCN2c1ccccc1Oc1ccncc1 [Example 260, 4-(2-(pyridin-4-yloxy)phenyl)-N-(thiazol-2-yl)-3,4-dihydro-2H-benzo[b][1,4]oxazine-7-sulfonamide]	2260
CC(C)(C#N)Oc1ccccc1N1CCOc2cc(S(=O)(=O)Nc3nccs3)ccc21 [Example 261, 4-(2-((2-cyanopropan-2-yl)oxy)phenyl)-N-(thiazol-2-yl)-3,4-dihydro-2H-benzo[b][1,4]oxazine-7-sulfonamide]	3600
O=C1COc2cc(S(=O)(=O)Nc3nccs3)ccc2N1c1ccc(C(F)(F)F)cc1CO [Example 262, 4-(2-(hydroxymethyl)-4-(trifluoromethyl)phenyl)-3-oxo-N-(thiazol-2-yl)-3,4-dihydro-2H-benzo[b][1,4]oxazine-7-sulfonamide]	3350
COc1cc(C(F)(F)F)ccc1N1C(=O)[C@H](C)Oc2cc(S(=O)(=O)Nc3nccs3)ccc21 [Example 264, (S)-4-(2-methoxy-4-(trifluoromethyl)phenyl)-2-methyl-3-oxo-N-(thiazol-2-yl)-3,4-dihydro-2H-benzo[b][1,4]oxazine-7-sulfonamide]	596
COc1cc(C(F)(F)F)ccc1N1C(=O)[C@@H](C)Oc2cc(S(=O)(=O)Nc3nccs3)ccc21 [Example 265, (R)-4-(2-Methoxy-4-(Trifluoromethyl)Phenyl)-2-Methyl-3-Oxo-N-(Thiazol-2-Yl)-3,4-Dihydro-2H-Benzo[B][1,4]Oxazine-7-Sulfonamide]	728
COc1cc(C(F)(F)F)ccc1N1C(=O)C(C)(C)Oc2cc(S(=O)(=O)Nc3nccs3)ccc21 [Example 266, 4-(2-Methoxy-4-(Trifluoromethyl)Phenyl)-2,2-Dimethyl-3-Oxo-N-(Thiazol-2-Yl)-3,4-Dihydro-2H-Benzo[B][1,4]Oxazine-7-Sulfonamide]	5620
